{"source": "patent US8383683B2", "about": "“Pharmaceutical use of substituted amides” (High Point Pharmaceuticals, LLC, priority 2007, dated 2013)", "note": "pIC50: −log10 of the molar value.", "data": [{"target": "11βHSD1 (Homo sapiens, UniProt P28845)", "sequence (P28845 whole entry)": "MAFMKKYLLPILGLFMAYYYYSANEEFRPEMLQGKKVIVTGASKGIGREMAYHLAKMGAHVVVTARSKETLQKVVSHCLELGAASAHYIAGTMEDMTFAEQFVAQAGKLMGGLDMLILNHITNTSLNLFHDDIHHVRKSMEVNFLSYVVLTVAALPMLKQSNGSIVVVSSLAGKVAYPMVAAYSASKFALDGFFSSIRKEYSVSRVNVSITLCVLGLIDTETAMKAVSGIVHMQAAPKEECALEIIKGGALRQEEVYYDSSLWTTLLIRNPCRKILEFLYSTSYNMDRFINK", "experiment": "11βHSD1 enzyme assay (SPA, 3H-cortisone to 3H-cortisol)", "format": "biochemical", "design": "An extract of yeast transformed with h-11βHSD1 (Hutt et al., FEBS Lett., 441, 25 (1998)) was used as the source of enzyme; made in house", "details": "extract of yeast transformed with h-11βHSD1; 120 nM 3H-cortisone, 4 mM β-NADPH, 60 min at 30° C.", "protocol": "Pharmacological Methods 11βHSD1 Enzyme Assay Materials\n^3H-cortisone and anti-rabbit Ig coated scintillation proximity assay (SPA) beads were purchased from Amersham Pharmacia Biotech, β-NADPH was from Sigma and rabbit anti-cortisol antibodies were from Fitzgerald. An extract of yeast transformed with h-11βHSD1 (Hutt et al., FEBS Lett., 441, 25 (1998)) was used as the source of enzyme. The test compounds were dissolved in DMSO (10 mM). All dilutions were performed in a buffer containing 50 mM TRIS-HCl (Sigma Chemical Co), 4 mM EDTA (Sigma Chemical Co), 0.1% BSA (Sigma Chemical Co), 0.01% Tween-20 (Sigma Chemical Co) and 0.005% bacitracin (Novo Nordisk NS), pH=7.4. Optiplate 96 wells plates were supplied by Packard. The amount of ^3H-cortisol bound to the SPA beads was measured on TopCount NXT, Packard.\nh-11βHSD1, 120 nM ^3H-cortisone, 4 mM β-NADPH, antibody (1:200), serial dilutions of test compound and SPA particles (2 mg/well) were added to the wells. The reaction was initiated by mixing the different components and was allowed to proceed under shaking for 60 min at 30° C. The reaction was stopped be the addition of 10 fold excess of a stopping buffer containing 500 μM carbenoxolone and 1 μM cortisone. Data was analysed using GraphPad Prism software.", "values": [{"smiles": "O=C(CCCOc1ccc(Cl)cc1Cl)N[C@@]12C[C@@H]3C[C@@H](C[C@@](O)(C3)C1)C2", "note": "[Example 1-1, 4-(2,4-Dichloro-phenoxy)-N-((1R,3S,5R,7S)-3-hydroxy-adamantan-1-yl)-butyramide]", "pIC50": 7.57}, {"smiles": "O=C(CCCOc1ccc(Cl)cc1Cl)NC(c1ccccc1)C1CC1", "note": "(stereo not shown) [Example 1-3, N-(Cyclopropyl-phenyl-methyl)-4-(2,4-dichloro-phenoxy)-butyramide]", "pIC50": 6.39}, {"smiles": "O=C(CCCOc1ccc(Cl)cc1Cl)N1CCCCC1c1ccccc1Cl", "note": "(stereo not shown) [Example 1-4, 1-[2-(2-Chloro-phenyl)-piperidin-1-yl]-4-(2,4-dichloro-phenoxy)-butan-1-one]", "pIC50": 6.53}, {"smiles": "O=C(CCCOc1ccc(Cl)cc1Cl)N1CCCCC1c1ccccc1", "note": "(stereo not shown) [Example 1-10, 4-(2,4-Dichloro-phenoxy)-1-(2-phenyl-piperidin-1-yl)-butan-1-one]", "pIC50": 6.70}, {"smiles": "CC1(C)[C@H]2CC[C@@H](CNC(=O)CCCOc3ccc(Cl)cc3Cl)[C@@H]1C2", "note": "[Example 1-11, 4-(2,4-Dichloro-phen-oxy)-N-((1S,2R,5S)-6,6-dimethyl-bicyclo[3.1.1]-hept-2-ylmethyl)-butyr-amide]", "pIC50": 6.57}, {"smiles": "O=C(CCCOc1ccc(Cl)cc1Cl)N1CC2CCC(CC2)C1", "note": "[Example 1-15, 1-(3-Aza-bicyclo[3.2.2]-non-3-yl)-4-(2,4-di-chloro-phenoxy)-butan-1-one]", "pIC50": 7.28}, {"smiles": "COC(=O)C1CC2CCC(C1)N2C(=O)CCCOc1ccc(Cl)cc1Cl", "note": "(stereo not shown) [Example 1-17, 8-[4-(2,4-Dichloro-phenoxy)-butyryl]-8-aza-bicyclo[3.2.1]octane-3-carboxylic acid methyl ester]", "pIC50": 8.15}, {"smiles": "O=C(CCCOc1ccc(Cl)cc1Cl)N(C1CC1)C1C2CC3CC1CC(O)(C3)C2", "note": "(stereo not shown) [Example 1-18, N-Cyclopropyl-4-(2,4-dichloro-phenoxy)-N-(5-hydroxy-adamantan-2-yl)-butyramide]", "pIC50": 6.68}, {"smiles": "O=C(CCCOc1ccc(Cl)cc1Cl)N(C1CC1)C1C2CC3CC1CC(O)(C3)C2", "note": "(stereo not shown) [Example 1-19, N-Cyclopropyl-4-(2,4-dichloro-phenoxy)-N-(5-hydroxy-adamantan-2-yl)-butyramide]", "pIC50": 7.62}, {"smiles": "O=C(CCCOc1ccc(Cl)cc1Cl)NC12CC3CC(C1)CC(C(=O)O)(C3)C2", "note": "[Example 1-20, 3-[4-(2,4-Dichloro-phenoxy)-butyrylamino]-adamantane-1-carboxylic acid]", "pIC50": 7.89}, {"smiles": "O=C(CCCOc1ccc(Cl)cc1Cl)NC1C2CC3CC(C2)C(CO)C1C3", "note": "(stereo not shown) [Example 1-21, 4-(2,4-Dichloro-phenoxy)-N-(4-hydroxy-methyl-adamantan-2-yl)-butyramide]", "pIC50": 9.00}, {"smiles": "O=C(CCCOc1ccc(Cl)cc1Cl)N1CC2CC3CC1CC(O)(C3)C2", "note": "(stereo not shown) [Example 1-22, 4-(2,4-Dichloro-phenoxy)-1-(1-hydroxy-4-aza-tricyclo-[4.3.1.1{3,8}]undec-4-yl)-butan-1-one]", "pIC50": 8.22}, {"smiles": "O=C(CCCOc1ccc(Cl)cc1Cl)N1CC2CC(O)C1C2", "note": "(stereo not shown) [Example 1-23, 4-(2,4-Dichloro-phenoxy)-1-(6-hydroxy-2-aza-bicyclo[2.2.1]hept-2-yl)-butan-1-one]", "pIC50": 6.82}, {"smiles": "O=C(CCCOc1ccc(Cl)cc1Cl)N1CC2CC1CC2O", "note": "(stereo not shown) [Example 1-24, 4-(2,4-Dichloro-phenoxy)-1-(5-hydroxy-2-aza-bicyclo[2.2.1]hept-2-yl)-butan-1-one]", "pIC50": 7.70}, {"smiles": "O=C(CCCOc1ccc(Cl)cc1Cl)N1CC2CC(O)CC1C2", "note": "(stereo not shown) [Example 1-25, 4-(2,4-Dichloro-phenoxy)-1-(3-hydroxy-6-aza-bicyclo[3.2.1]oct-6-yl)-butan-1-one]", "pIC50": 6.73}, {"smiles": "CN(C(=O)CCCOc1ccc(Cl)cc1Cl)C1CCC(O)CC1", "note": "(stereo not shown) [Example 1-26, 4-(2,4-Dichloro-phenoxy)-N-(4-hydroxy-cyclohexyl)-N-methyl-butyramide]", "pIC50": 7.68}, {"smiles": "O=C(CCCOc1ccc(Cl)cc1Cl)NC1C2CC3CC1CC(O)(C3)C2", "note": "(stereo not shown) [Example 1-27, 4-(2,4-Dichloro-phenoxy)-N-(5-hydroxy-adamantan-2-yl)-butyramide]", "pIC50": 8.40}, {"smiles": "O=C(CCCOc1ccc(Cl)cc1Cl)NC12CC3CC(CC(CO)(C3)C1)C2", "note": "[Example 1-28, 4-(2,4-Dichloro-phenoxy)-N-(3-hydroxy-methyl-adamantan-1-yl)-butyramide]", "pIC50": 9.00}, {"smiles": "O=C(CCCOc1ccc(Cl)cc1Cl)N1CC2CCC1C2O", "note": "(stereo not shown) [Example 1-29, 4-(2,4-Dichloro-phenoxy)-1-(7-hydroxy-2-aza-bicyclo[2.2.1]hept-2-yl)-butan-1-one]", "pIC50": 7.85}, {"smiles": "COC(=O)C12CC3CC(CC(NC(=O)CCCOc4ccc(Cl)cc4Cl)(C3)C1)C2", "note": "[Example 1-30, 3-[4-(2,4-Dichloro-phenoxy)-butyrylamino]-adamantane-1-carboxylic acid methyl ester]", "pIC50": 8.00}, {"smiles": "O=C(CCCOc1ccc(Cl)cc1Cl)NC12CC3CC(C1)CC(C(=O)O)(C3)C2", "note": "[Example 1-31, 3-[4-(2,4-Dichloro-phenoxy)-butyrylamino]-adamantane-1-carboxylic acid]", "pIC50": 7.96}, {"smiles": "CN(C(=O)CCCOc1ccc(Cl)cc1Cl)C1C2CC3CC1CC(O)(C3)C2", "note": "(stereo not shown) [Example 1-32, 4-(2,4-Dichloro-phenoxy)-N-(5-hydroxy-adamantan-2-yl)-N-methyl-butyramide]", "pIC50": 8.40}, {"smiles": "CCN(C(=O)CCCOc1ccc(Cl)cc1Cl)C1C2CC3CC1CC(O)(C3)C2", "note": "(stereo not shown) [Example 1-33, 4-(2,4-Dichloro-phenoxy)-N-ethyl-N-(5-hydroxy-adamantan-2-yl)-butyramide]", "pIC50": 8.15}, {"smiles": "CCN(C(=O)CCCOc1ccc(Cl)cc1Cl)C1C2CC3CC1CC(O)(C3)C2", "note": "(stereo not shown) [Example 1-34, 4-(2,4-Dichloro-phenoxy)-N-ethyl-N-(5-hydroxy-adamantan-2-yl)-butyramide]", "pIC50": 6.76}, {"smiles": "O=C(CCCOc1ccc(Cl)cc1Cl)N1CC2CCC(C1)C2O", "note": "(stereo not shown) [Example 1-35, 4-(2,4-Dichloro-phenoxy)-1-(8-hydroxy-3-aza-bicyclo[3.2.1]oct-3-yl)-butan-1-one]", "pIC50": 6.60}, {"smiles": "O=C(CCCOc1ccc(Cl)cc1Cl)N1CC2CCC1CC2O", "note": "(stereo not shown) [Example 1-36, 4-(2,4-Dichloro-phenoxy)-1-(5-hydroxy-2-aza-bicyclo[2.2.2]oct-2-yl)-butan-1-one]", "pIC50": 6.40}, {"smiles": "CN(C(=O)CCCOc1ccccc1)C1CCC(O)CC1", "note": "(stereo not shown) [Example 1-37, N-(4-Hydroxy-cyclohexyl)-N-methyl-4-phenoxy-butyramide]", "pIC50": 5.74}, {"smiles": "O=C(CCCOc1ccccc1)NC1C2CC3CC1CC(O)(C3)C2", "note": "(stereo not shown) [Example 1-39, N-(5-Hydroxy-adamantan-2-yl)-4-phenoxy-butyramide]", "pIC50": 7.30}, {"smiles": "CN(C(=O)CCCOc1ccccc1)C1C2CC3CC1CC(O)(C3)C2", "note": "(stereo not shown) [Example 1-42, N-(5-Hydroxy-adamantan-2-yl)-N-methyl-4-phenoxy-butyramide]", "pIC50": 5.87}, {"smiles": "CN(C(=O)CCCOc1ccccc1)C1C2CC3CC1CC(O)(C3)C2", "note": "(stereo not shown) [Example 1-43, N-(5-Hydroxy-adamantan-2-yl)-N-methyl-4-phenoxy-butyramide]", "pIC50": 7.24}, {"smiles": "O=C(CCCOc1ccccc1)NC12CC3CC(CC(CO)(C3)C1)C2", "note": "[Example 1-45, N-(3-Hydroxymethyl-adamantan-1-yl)-4-phenoxy-butyramide]", "pIC50": 8.05}, {"smiles": "O=C(CCCOc1ccccc1)N1CC2CC1CC2O", "note": "(stereo not shown) [Example 1-46, 1-(5-Hydroxy-2-aza-bicyclo[2.2.1]hept-2-yl)-4-phenoxy-butan-1-one]", "pIC50": 5.82}, {"smiles": "O=C(CCCOc1ccccc1)N1CC2CCC1C2O", "note": "(stereo not shown) [Example 1-48, 1-(7-Hydroxy-2-aza-bicyclo[2.2.1]hept-2-yl)-4-phenoxy-butan-1-one]", "pIC50": 5.97}, {"smiles": "CC(C)N(C(=O)CCCOc1ccccc1)C1C2CC3CC1CC(O)(C3)C2", "note": "(stereo not shown) [Example 1-49, N-(5-Hydroxy-adamantan-2-yl)-N-isopropyl-4-phenoxy-butyramide]", "pIC50": 6.85}, {"smiles": "CCN(C(=O)CCCOc1ccccc1)C1C2CC3CC1CC(O)(C3)C2", "note": "(stereo not shown) [Example 1-51, N-Ethyl-N-(5-hydroxy-adamantan-2-yl)-4-phenoxy-butyramide]", "pIC50": 7.21}, {"smiles": "COC(=O)C12CC3CC(CC(NC(=O)CCCOc4ccccc4)(C3)C1)C2", "note": "[Example 1-52, 3-(4-Phenoxy-butyryl-amino)-adamantane-1-carboxylic acid methyl ester]", "pIC50": 7.27}, {"smiles": "O=C(CCCOc1ccccc1)NC12CC3CC(C1)CC(C(=O)O)(C3)C2", "note": "[Example 1-53, 3-(4-Phenoxy-butyryl-amino)-adamantane-1-carboxylic acid]", "pIC50": 6.71}, {"smiles": "O=C(CCCOc1ccccc1)NC1C2CC3CC1CC(CO)(C3)C2", "note": "(stereo not shown) [Example 1-54, N-(5-Hydroxymethyl-adamantan-2-yl)-4-phenoxy-butyramide]", "pIC50": 8.00}, {"smiles": "O=C(CCCOc1ccc(Cl)cc1Cl)NC1C2CC3CC1CC(CO)(C3)C2", "note": "(stereo not shown) [Example 1-55, 4-(2,4-Dichloro-phenoxy)-N-(5-hydroxy-methyl-adamantan-2-yl)-butyramide]", "pIC50": 8.70}, {"smiles": "CC(C)N(C(=O)CCCOc1ccc(Cl)cc1Cl)C1C2CC3CC1CC(O)(C3)C2", "note": "(stereo not shown) [Example 1-56, 4-(2,4-Dichloro-phenoxy)-N-(5-hydroxy-adamantan-2-yl)-N-isopropyl-butyramide]", "pIC50": 6.49}]}]}
